Some results are limits rather than exact numbers.

What is called IC50 is the concentration needed to halve the response being measured.

For this assay, the target named is T1, recombinant human 11 β-HSD1 (Homo sapiens, UniProt P28845).
T1 construct: made in house; host or cells: E. coli
T1 sequence (P28845 whole entry): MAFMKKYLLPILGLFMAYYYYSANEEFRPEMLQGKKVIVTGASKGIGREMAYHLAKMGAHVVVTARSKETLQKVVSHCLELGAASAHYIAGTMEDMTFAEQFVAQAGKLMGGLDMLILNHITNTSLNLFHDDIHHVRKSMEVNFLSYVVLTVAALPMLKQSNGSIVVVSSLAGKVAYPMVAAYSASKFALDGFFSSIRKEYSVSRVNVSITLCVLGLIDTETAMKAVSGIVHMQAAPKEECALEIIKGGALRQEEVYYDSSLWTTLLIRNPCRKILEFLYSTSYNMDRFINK
Briefly: 11 β-HSD1 SPA Assay (Scintillation Proximity Assay). The assay is classed as biochemical. In outline: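 Scintillation proximity read-out of cortisol formed from 40 nM [3H]cortisone by purified recombinant human enzyme (30-100 nM, E. coli) with 1 mM NADPH, pH7.4, 2 hours at room temperature; beads with cortisol antibody and glycyrrhetinic acid stop the reaction, read next day. IC50 derived from inhibition normalised to background and maximal wells.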
(Scintillation proximity formats need no separation of bound from free tracer.)
In the case of `CC(C)(Oc1cc(F)ccc1C(F)(F)F)C(=O)N[C@H]1C[C@H]2CC[C@@H](C1)N2c1ccc(C(N)=O)cn1` [Example 309, 6-{3-endo-[(2-{[5-fluoro-2-(trifluoromethyl)phenyl]oxy}-2-methylpropanoyl)amino]-8-azabicyclo[3.2.1]oct-8-yl}pyridine-3-carboxamide], the IC50 was below 200 nM. On to `CC(C)(Oc1ccc2ccccc2n1)C(=O)N[C@H]1C[C@H]2CC[C@@H](C1)N2c1ccc(C(N)=O)cn1` [Example 310, 6-(3-endo-{[2-methyl-2-(quinolin-2-yloxy)propanoyl]amino}-8-azabicyclo[3.2.1]oct-8-yl)pyridine-3-carboxamide], for which the IC50 is below 200 nM. In the case of `CS(=O)(=O)c1cccc(C2(C(=O)N[C@H]3C[C@H]4CC[C@@H](C3)N4c3ccc(C(N)=O)cn3)CC2)c1` [Example 311, 6-{3-endo-[({1-[3-(methylsulfonyl)phenyl]cyclo-propyl}carbonyl)amino]-8-azabicyclo[3.2.1]oct-8-yl}pyridine-3-carboxamide], the IC50 is below 200 nM. On to `CC(C)(COc1ccc(Cl)cc1C(F)(F)F)C(=O)N[C@H]1C[C@H]2CC[C@@H](C1)N2c1ccc(C(=O)NCC(F)(F)F)cn1` [Example 312, 6-{3-endo-[(3-{[4-chloro-2-(trifluoromethyl)phenyl]oxy}-2,2-dimethylpropanoyl)amino]-8-azabicyclo[3.2.1]oct-8-yl}-N-(2,2,2-trifluoroethyl)pyridine-3-carboxamide], for which the IC50 was below 200 nM. As to `CS(=O)(=O)c1cccc(C2(C(=O)N[C@H]3C[C@H]4CC[C@@H](C3)N4c3ccc(S(N)(=O)=O)cn3)CC2)c1` [Example 313, N-{8-[5-(aminosulfonyl)pyridin-2-yl]-8-azabicyclo[3.2.1]oct-3-endo-yl}-1-[3-(methylsulfonyl)phenyl]cyclo-propanecarboxamide], the IC50 was below 2000 nM. The figure for `CC(C)(Oc1ncc(Cl)cc1C(F)(F)F)C(=O)N[C@H]1C[C@H]2CC[C@@H](C1)N2c1ccc(S(C)(=O)=O)cn1` [Example 314, 2-{[5-chloro-3-(trifluoromethyl)pyridin-2-yl]oxy}-2-methyl-N-{8-[5-(methylsulfonyl)pyridin-2-yl]-8-azabicyclo[3.2.1]oct-3-endo-yl}propanamide] is below 200 nM; for `CC(C)(Oc1ccc(F)cc1Cl)C(=O)N[C@H]1C[C@H]2CC[C@@H](C1)N2c1ccc(NS(C)(=O)=O)cc1` [Example 315, 2-[(2-chloro-4-fluorophenyl)oxy]-2-methyl-N-(8-{4-[(methylsulfonyl)amino]phenyl}-8-azabicyclo[3.2.1]oct-3-endo-yl)propanamide] it is below 200 nM. `CC(C)(Oc1ccc2ccccc2c1)C(=O)N[C@H]1C[C@H]2CC[C@@H](C1)N2c1ccc(C(N)=O)cn1` [Example 316, 6-(3-endo-{[2-methyl-2-(naphthalen-2-yloxy)propanoyl]amino}-8-azabicyclo[3.2.1]oct-8-yl)pyridine-3-carboxamide]: the IC50 was below 200 nM. As to `CC(C)(Oc1ccc(Cl)cc1Cl)C(=O)N[C@H]1C[C@H]2CC[C@@H](C1)N2c1ccc(C(=O)NC2COC2)cn1` [Example 317, 6-[3-endo-({2-[(2,4-dichlorophenyl)oxy]-2-methylpropanoyl}amino)-8-azabicyclo[3.2.1]oct-8-yl]-N-oxetan-3-ylpyridine-3-carboxamide], the IC50 was below 200 nM. Consider `CC(C)(Oc1ccnc2ccccc12)C(=O)N[C@H]1C[C@H]2CC[C@@H](C1)N2c1ccc(C(N)=O)cn1` [Example 318, 6-(3-endo-{[2-methyl-2-(quinolin-4-yloxy)propanoyl]amino}-8-azabicyclo[3.2.1]oct-8-yl)pyridine-3-carboxamide], for which the IC50 is below 200 nM. In the case of `CC(C)(Oc1cc(F)ccc1C(F)(F)F)C(=O)N[C@H]1C[C@H]2CC[C@@H](C1)N2c1ccc(C(=O)NCC(F)(F)F)cn1` [Example 319, 6-{3-endo-[(2-{[5-fluoro-2-(trifluoromethyl)phenyl]oxy}-2-methylpropanoyl)amino]-8-azabicyclo[3.2.1]oct-8-yl}-N-(2,2,2-trifluoroethyl)pyridine-3-carboxamide], the IC50 was below 200 nM. `CC(C)(Oc1ccc(Cl)cc1C1CCCC1)C(=O)N[C@H]1C[C@H]2CC[C@@H](C1)N2c1ccc(C(N)=O)cn1` [Example 320, 6-[3-endo-({2-[(4-chloro-2-cyclopentylphenyl)oxy]-2-methylpropanoyl}amino)-8-azabicyclo[3.2.1]oct-8-yl]pyridine-3-carboxamide]: the IC50 was below 200 nM. Next, `CC(C)(Oc1ccc(Cl)cc1S(C)(=O)=O)C(=O)N[C@H]1C[C@H]2CC[C@@H](C1)N2c1ccc(C(=O)NCC(F)(F)F)cn1` [Example 321, 6-{3-endo-[(2-{[4-chloro-2-(methylsulfonyl)phenyl]oxy}-2-methylpropanoyl)amino]-8-azabicyclo[3.2.1]oct-8-yl}-N-(2,2,2-trifluoroethyl)pyridine-3-carboxamide]: below 200 nM. The figure for `CC(C)(Oc1ccc(Cl)cc1-c1ccccc1)C(=O)N[C@H]1C[C@H]2CC[C@@H](C1)N2c1ccc(C(N)=O)cn1` [Example 322, 6-[3-endo-({2-[(5-chlorobiphenyl-2-yl)oxy]-2-methylpropanoyl}amino)-8-azabicyclo[3.2.1]oct-8-yl]pyridine-3-carboxamide] is below 200 nM.

In the case of `CC(C)(Oc1ccc(Cl)cc1Cl)C(=O)N[C@H]1C[C@H]2CC[C@@H](C1)N2Cc1ccc(C(N)=O)cn1` [Example 323, 6-{[3-endo-({2-[(2,4-dichlorophenyl)oxy]-2-methylpropanoyl}amino)-8-azabicyclo[3.2.1]oct-8-yl]methyl}pyridine-3-carboxamide], the IC50 was below 2000 nM. Regarding `CC(C)(Oc1ccc(Cl)cc1S(C)(=O)=O)C(=O)N[C@H]1C[C@H]2CC[C@@H](C1)N2c1ccc(S(C)(=O)=O)cn1` [Example 324, 2-{[4-chloro-2-(methylsulfonyl)phenyl]oxy}-2-methyl-N-{8-[5-(methylsulfonyl)pyridin-2-yl]-8-azabicyclo[3.2.1]oct-3-endo-yl}propanamide], the IC50 is below 2000 nM. Consider `CC(C)(Oc1ncc(Cl)cc1C(F)(F)F)C(=O)N[C@H]1C[C@H]2CC[C@@H](C1)N2c1ccc(S(C)(=O)=O)cc1` [Example 325, 2-{[5-chloro-3-(trifluoromethyl)pyridin-2-yl]oxy}-2-methyl-N-{8-[4-(methylsulfonyl)phenyl]-8-azabicyclo[3.2.1]oct-3-endo-yl}propanamide], for which the IC50 is below 200 nM. As to `CC(C)(Oc1ccccc1S(C)(=O)=O)C(=O)N[C@H]1C[C@H]2CC[C@@H](C1)N2c1ccc(C(N)=O)cn1` [Example 326, 6-{3-endo-[(2-methyl-2-{[2-(methylsulfonyl)phenyl]oxy}propanoyl)amino]-8-azabicyclo[3.2.1]oct-8-yl}pyridine-3-carboxamide], the IC50 is below 200 nM. As to `CC(C)(Oc1ccc(Cl)cc1Cl)C(=O)N[C@H]1C[C@H]2CC[C@@H](C1)N2C(=O)c1cccc(C(N)=O)c1` [Example 327, 3-{[3-endo-({2-[(2,4-dichlorophenyl)oxy]-2-methylpropanoyl)amino)-8-azabicyclo[3.2.1]oct-8-yl]carbonyl}benzamide], the IC50 was below 2000 nM.

As for `CC(C)(Sc1ccc(Cl)cc1Cl)C(=O)N[C@H]1C[C@H]2CC[C@@H](C1)N2c1ccc(S(C)(=O)=O)cn1` [Example 328, 2-[(2,4-dichlorophenyl)thio]-2-methyl-N-{8-[5-(methylsulfonyl)pyridin-2-yl]-8-azabicyclo[3.2.1]oct-3-endo-yl}propanamide], the IC50 is below 200 nM. The figure for `CC(C)(Oc1ccc(Cl)c(Cl)c1)C(=O)N[C@H]1C[C@H]2CC[C@@H](C1)N2c1ccc(NS(C)(=O)=O)cc1` [Example 329, 2-[(3,4-dichlorophenyl)oxy]-2-methyl-N-(8-{4-[(methylsulfonyl)amino]phenyl}-8-azabicyclo[3.2.1]oct-3-endo-yl)propanamide] is below 200 nM; for `CC(C)(Oc1ccc(F)cc1Cl)C(=O)N[C@H]1C[C@H]2CC[C@@H](C1)N2c1ccc(-c2nc(C(F)(F)F)n[nH]2)cn1` [Example 330, 2-[(2-chloro-4-fluorophenyl)oxy]-2-methyl-N-(8-{5-[3-(trifluoromethyl)-1H-1,2,4-triazol-5-yl]pyridin-2-yl}-8-azabicyclo[3.2.1]oct-3-endo-yl)propanamide] it is below 2000 nM; for `CC(C)c1cc(Cl)ccc1OC(C)(C)C(=O)N[C@H]1C[C@H]2CC[C@@H](C1)N2c1ccc(C(N)=O)cn1` [Example 331, 6-{3-endo-[(2-{[4-chloro-2-(1-methylethyl)phenyl]oxy}-2-methylpropanoyl)amino]-8-azabicyclo[3.2.1]oct-8-yl}pyridine-3-carboxamide] it is below 200 nM.

As to `CS(=O)(=O)c1ccc(N2[C@@H]3CC[C@H]2C[C@@H](NC(=O)C2(c4ccc(F)c(Cl)c4)CC2)C3)nc1` [Example 332, 1-(3-chloro-4-fluorophenyl)-N-{8-[5-(methylsulfonyl)pyridin-2-yl]-8-azabicyclo[3.2.1]oct-3-endo-yl}cyclopropanecarboxamide], the IC50 was below 200 nM. For `CC(C)(Oc1ccc(Cl)cc1C(F)(F)F)C(=O)N[C@H]1C[C@H]2CC[C@@H](C1)N2c1ccc(NS(C)(=O)=O)cn1` [Example 333, 2-{[4-chloro-2-(trifluoromethyl)phenyl]oxy}-2-methyl-N-(8-{5-[(methylsulfonyl)amino]pyridin-2-yl}-8-azabicyclo[3.2.1]oct-3-endo-yl)propanamide], the IC50 was below 200 nM. Turning to `CC(C)(Oc1ccc(Cl)cc1S(C)(=O)=O)C(=O)N[C@H]1C[C@H]2CC[C@@H](C1)N2c1ccc(C(N)=O)cn1` [Example 334, 6-{3-endo-[(2-{[4-chloro-2-(methylsulfonyl)phenyl]oxy}-2-methylpropanoyl)amino]-8-azabicyclo[3.2.1]oct-8-yl}pyridine-3-carboxamide], the IC50 was below 200 nM.

Values taken from US8163771B2, “11 β-HSD1 modulators” (Exelixis, Inc., priority 2008, dated 2012).
